In patent publication US11746116B2, “Antibiotic resistance breakers” (KING'S COLLEGE LONDON, priority 2017, dated 2023):
≈ marks a conversion by molar mass, not a printed value. Read-outs that look alike come from different tables or passages of the source.

What was measured:
Test in all cases: MIC, microdilution broth method
MSSA9144 = assay type: cell-based, Staphylococcus aureus
PA01 = assay type: cell-based, Pseudomonas aeruginosa; details: PA01; Normal (no PMBN); in µg/mL
M6 = assay type: cell-based
VRE12204 = assay type: cell-based, Enterococcus faecium; details: in µg/mL; for MIC: VRE12204
EMRSA16 = assay type: cell-based, Staphylococcus aureus
VSE775 = assay type: cell-based, Enterococcus faecalis; parameters: MIC, VSE775: unit not given beside the values
Ab17978 = assay type: cell-based
VRE12201 = assay type: cell-based, Enterococcus faecalis
KP13368 = assay type: cell-based
EMRSA15 = assay type: cell-based, Staphylococcus aureus
EC12923 = assay type: cell-based
[1] = Ab17978, Normal (no PMBN), in µg/mL
[2] = KP13368, Normal (no PMBN), in µg/mL
[3] = ESKAPE panel, Gram-negative, in µg/mL
[4] = ESKAPE panel, Gram-positive, in µg/mL

Compound	MIC (MSSA9144; MSSA9144, in µg/mL)	MIC (PA01)	MIC (M6; M6, Normal (no PMBN), in µg/mL)	MIC (VRE12204)	MIC (EMRSA16; EMRSA16, in µg/mL)	MIC (VSE775; VSE775, in µg/mL)	MIC (Ab17978; [1])	MIC (VRE12201; VRE12201, in µg/mL)	MIC (KP13368; [2])	MIC (EMRSA15; EMRSA15, in µg/mL)	MIC (EC12923; EC12923, in µg/mL)	also measured
CCn1cc(C(=O)O)c(=O)c2cc(F)c(N3CCN(Cc4ccccc4)CC3)cc21 [ML-77-047]	0.25	32	4	4	16-32	4	1-16	2	32	16		
CCn1cc(C(=O)O)c(=O)c2cc(F)c(N3CCN(Cc4cccc5cccnc45)CC3)cc21 [ML-77-053]	1	64	8			16	4	8	64			
CCn1cc(C(=O)O)c(=O)c2cc(F)c(N3CCN(Cc4ccc(N(C)C)cc4)CC3)cc21 [ML-77-113]	0.125-0.25	16-32	4-16	0.25	>32	4-8	2	2	32	16-32		
O=C(O)c1cn(C2CC2)c2cc(N3CCN(Cc4ccc(-c5ccccc5)cc4)CC3)c(F)cc2c1=O [ML-77-133]	1	4	1	2	2	2	2	4		2		
CCn1cc(C(=O)O)c(=O)c2cc(F)c(N3CCN(Cc4ccc(-n5cccc5)cc4)CC3)cc21 [ML-77-136, 7-(4-(4-(1H-pyrrol-1-yl)benzyl)piperazin-1-yl)-1-ethyl-6-fluoro oxo-1-4-dihydroquinoline-3-carboxylic acid]	0.25-0.5	64-128	8-32	4-8	8-16	4-8	16-32	4-8	64-128	8		
CCn1cc(C(=O)O)c(=O)c2cc(F)c(N3CCN(Cc4ccc(CO)cc4)CC3)cc21 [ML-77-148, 1-ethyl-6-fluoro-7-(4-(4-(hydroxymethyl)benzyl)piperazin-1-yl)-4-oxo-1,4-dihydroquinoline-3-carboxylic acid]	0.5	32	4	8	32	4-8	2	4	32	32		
Cc1cc(C)cc(CN2CCN(c3cc4c(cc3F)c(=O)c(C(=O)O)cn4C3CC3)CC2)c1 [ML-77-149]	0.25	32	4-8	8	8	2-4	4	1		4-8		
CCn1cc(C(=O)O)c(=O)c2cc(F)c(N3CCN(Cc4ccc(-c5csnn5)cc4)CC3)cc21 [ML-77-161, 7-(4-(4-(1,2,3-thiadiazol-4-yl)benzyl)piperazin-1-yl)-1-ethyl-6-fluoro-4-oxo-1,4-dihydroquinoline-3-carboxylic acid]	<0.12	64	4-8	16	16	8	2	4	64	8		
Cc1cc(N2CCN(c3c(F)cc4c(=O)c(C(=O)O)cn5c4c3OC[C@@H]5C)CC2)nc(C(C)C)n1 [ML-83-011, (S)-9-fluoro-10-(4-(2-isopropyl-6-methylpyrimidin-4-yl)piperazin-1-yl)-3-methyl-7-oxo-2,3-dihydro-7H-[1,4]oxazino[2,3,4-ij]quinoline-6-carboxylic acid]	0.25		16-64	8	16	1	16		64	16	1-8	MIC (MSSA9144; Staphylococcus aureus (MSSA9144), Gram-Positive, read-out: MIC): 0.25 µg/mL (≈ 0.519 µM); MIC, M6 (M6; [3]): 16-64; MIC (M6; Klebsiella pneumoniae (M6), Gram-Negative, read-out: MIC): 16 to 64 µg/mL (≈ 33.2 to 133 µM); MIC, VRE12204 (VRE12204; ESKAPE panel, Gram-positive): 8; MIC, EMRSA16 (EMRSA16; [4]): 16; MIC (EMRSA16; Staphylococcus aureus (EMRSA16), Gram-Positive (Table 14), read-out: MIC): 16 µg/mL (≈ 33.2 µM); MIC, VSE775 (VSE775; ESKAPE panel, Gram-positive): 1; MIC (VSE775; Enterococcus faecalis, Enterococcus (VRE775), Gram-Positive, read-out: MIC): 1 µg/mL (≈ 2.08 µM); MIC (Ab17978; Acinetobacter baumannii (AB17978), Gram-Negative, read-out: MIC): 16 µg/mL (≈ 33.2 µM); MIC, Ab17978 (Ab17978; [3]): 16; MIC, EC12923 (EC12923; [3]): 1-8; MIC (EC12923; Escherichia coli (EC12923), Gram-Negative, read-out: MIC): 1 to 8 µg/mL (≈ 2.08 to 16.6 µM); MIC, VRE12201 (VRE12201; [4]): 0.5-1; MIC (VRE12201; Enterococcus faecalis, Enterococcus (VRE12201), Gram-Positive, read-out: MIC): 0.5 to 1 µg/mL (≈ 1.04 to 2.08 µM); MIC, KP13368 (KP13368; ESKAPE panel, Gram-negative): 64 µg/mL (≈ 133 µM); MIC (KP13368; Klebsiella pneumoniae (KP13368), Gram-Negative, read-out: MIC): 64 µg/mL (≈ 133 µM); MIC, EMRSA15 (EMRSA15; [4]): 16; MIC (EMRSA15; Staphylococcus aureus, Staphylococcus aureus (EMRSA15), Gram-Positive (Table 14), read-out: MIC): 16 µg/mL (≈ 33.2 µM)
C[C@H]1COc2c(N3CCN(c4ccncc4)CC3)c(F)cc3c(=O)c(C(=O)O)cn1c23 [ML-83-019]	64		64				64				32	
COCc1cccc(CN2CCN(c3cc4c(cc3F)c(=O)c(C(=O)O)cn4C3CC3)CC2)c1 [ML-83-036]	0.5		8	16		2-4	2	2-4			4	
CCn1cc(C(=O)O)c(=O)c2cc(F)c(N3CCN(Cc4cccc(COC)c4)CC3)cc21 [ML-83-037, 1-ethyl-6-fluoro-7-(4-(3-(methoxymethyl)benzyl)piperazin-1-yl)-4-oxo-1,4-dihydroquinoline-3-carboxylic acid]	1		32	16	64	16	8	8	64-128	64-128	16	
COCc1ccc(CN2CCN(c3cc4c(cc3F)c(=O)c(C(=O)O)cn4C3CC3)CC2)cc1 [ML-83-050]	0.25		2	16		1-2	1	1		16-32	1	
CCn1cc(C(=O)O)c(=O)c2cc(F)c(N3CCN(Cc4ccc(COC)cc4)CC3)cc21 [ML-83-052, 1-ethyl-6-fluoro-7-(4-(4-(methoxymethyl)benzyl)piperazin-1-yl)-4-oxo-1,4-dihydroquinoline-3-carboxylic acid]	0.5-1		8-16	16	64	8-16	4	8	64	64-128	4	
